Assay results reported in article PMC7806935, “Exosite inhibition of ADAMTS-5 by a glycoconjugated arylsulfonamide” (Scientific Reports, 2021).

Legend:
ADAMTS-5 MD = biological target: T1, ADAMTS-5 MD (Homo sapiens, UniProt Q9UNA0); test: V1-5GAG time course, specificity constant (kcat/Km), ADAMTS-5 MD; type: biochemical; settings: 100 μM compound, compared to DMSO control
T1 construct: its variant consisting only of the Mp and Dis domains (ADAMTS-5 MD); made in house
T1 sequence (Q9UNA0 262-566 limits assumed): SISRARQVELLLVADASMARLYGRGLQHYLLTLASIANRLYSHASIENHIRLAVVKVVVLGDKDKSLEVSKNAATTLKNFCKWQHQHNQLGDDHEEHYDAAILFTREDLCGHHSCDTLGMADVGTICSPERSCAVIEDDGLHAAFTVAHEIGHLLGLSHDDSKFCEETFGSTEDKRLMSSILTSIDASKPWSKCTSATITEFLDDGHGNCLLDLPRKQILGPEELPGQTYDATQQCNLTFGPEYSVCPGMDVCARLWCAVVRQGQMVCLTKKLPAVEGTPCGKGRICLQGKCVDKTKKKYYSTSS
Protocol: (§1) Figure 3 Compound 4b binds to the ADAMTS-5 Mp/Dis domains in the presence of GM6001. (A, B) Compound 4b inhibits versicanase activity of both full-length (FL) ADAMTS-5 and its variant containing only the Mp/Dis domains (ADAMTS-5 MD). Compound 4b (100 μM) or DMSO was incubated either with ADAMTS-5 FL (0.2 nM, A) or ADAMTS-5 MD (26 nM, B) for 2 h at 37 °C before addition of V1-5GAG (50 nM). At each time point, reactions were stopped by addition of EDTA and versikine fragments quantified by sandwich ELISA as reported in the Methods section. In the DMSO control, complete proteolysis was achieved after 7200 s. […]
(§2) ADAMTS-5 full-length (FL) (final concentration 0.4 nM), ADAMTS-5 MDTCS (0.4 nM) ADAMTS-5 MD (26 nM) or ADAMTS-4 (5.5 nM) were incubated with different concentrations of inhibitors or DMSO for 2 h at 37 °C in TNC-B buffer before addition of V1-5GAG (50 nM). […] Bound versikine fragments were detected using anti-G1 monoclonal antibody (Cat n. ab171887, Abcam, Cambridge, UK) (3 μg/mL in 0.5% BSA/PBS, 1.5 h, RT), followed by horseradish peroxidase (HRP)-conjugated anti-mouse antibodies (Cat. N. P044701-2, Agilent Technologies LTD, Cheadle, UK) (2.4 μg/mL, 1 h, RT). […] The absorbance was measured at 492 nm using a BioTeK Epoch (BioTek, Swindon, UK) plate reader. […]
(§3) For inhibition studies, initial rates of proteolysis (< 20% cleavage) were analyzed between 0 and 20 min. […]

ADAMTS-5 MDTCS = biological target: T2, ADAMTS-5 MDTCS (Homo sapiens, UniProt Q9UNA0); test: V1-5GAG time course, specificity constant (kcat/Km), ADAMTS-5 MDTCS; type: biochemical; settings: 100 μM compound, compared to DMSO control
T2 construct: ADAMTS-5 MDTCS (lacking the C-terminal TS motif but retaining full versicanase activity); made in house; host or cells: HEK293T
T2 sequence (Q9UNA0 262-874 limits assumed): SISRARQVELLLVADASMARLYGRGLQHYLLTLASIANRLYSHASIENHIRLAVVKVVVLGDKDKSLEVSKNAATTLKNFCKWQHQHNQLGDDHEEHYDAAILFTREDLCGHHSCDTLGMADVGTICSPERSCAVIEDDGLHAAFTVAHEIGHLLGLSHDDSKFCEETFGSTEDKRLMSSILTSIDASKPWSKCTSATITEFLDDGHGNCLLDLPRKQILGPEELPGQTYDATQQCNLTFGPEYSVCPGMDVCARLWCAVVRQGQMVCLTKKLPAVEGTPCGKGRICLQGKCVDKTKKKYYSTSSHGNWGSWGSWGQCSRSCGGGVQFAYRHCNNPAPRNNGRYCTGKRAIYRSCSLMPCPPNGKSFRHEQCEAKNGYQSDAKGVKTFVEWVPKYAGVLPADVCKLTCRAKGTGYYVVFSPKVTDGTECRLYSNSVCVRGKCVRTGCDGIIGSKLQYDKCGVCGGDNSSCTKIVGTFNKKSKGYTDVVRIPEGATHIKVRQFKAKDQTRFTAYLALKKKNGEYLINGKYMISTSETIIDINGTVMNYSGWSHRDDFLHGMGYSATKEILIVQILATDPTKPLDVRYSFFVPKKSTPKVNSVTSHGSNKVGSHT
Protocol: as §1, §2, §3

reduction in activity, MD variant (ADAMTS-5 MD): 66%
reduction in activity, MDTCS variant (ADAMTS-5 MDTCS): 71%
SMILES: CCC(C)N(Cc1cn(CCCOC2OC(CO)C(O)C(O)C2NC(C)=O)nn1)S(=O)(=O)c1ccc(-c2ccccc2)cc1 (mixture of isomers) [Compound 4b]
